Source: ChEMBL document CHEMBL4368904 (J Med Chem, 2019)
Blank lines part the entries; values can stand above or below the compound they belong to. Calls of active or inactive are those of the source. No cut-off for these calls is given here.

Assays:
[1] = molecular target: Sigma intracellular receptor 2 (Homo sapiens, UniProt Q5BJF2); test: Inhibition of sigma receptor 2 (unknown origin)
Histamine H1 receptor = Histamine H1 receptor (Homo sapiens, UniProt P35367); test: Inhibition of histamine H1 receptor (unknown origin)
Chain of Histamine H1 receptor (P35367 whole entry): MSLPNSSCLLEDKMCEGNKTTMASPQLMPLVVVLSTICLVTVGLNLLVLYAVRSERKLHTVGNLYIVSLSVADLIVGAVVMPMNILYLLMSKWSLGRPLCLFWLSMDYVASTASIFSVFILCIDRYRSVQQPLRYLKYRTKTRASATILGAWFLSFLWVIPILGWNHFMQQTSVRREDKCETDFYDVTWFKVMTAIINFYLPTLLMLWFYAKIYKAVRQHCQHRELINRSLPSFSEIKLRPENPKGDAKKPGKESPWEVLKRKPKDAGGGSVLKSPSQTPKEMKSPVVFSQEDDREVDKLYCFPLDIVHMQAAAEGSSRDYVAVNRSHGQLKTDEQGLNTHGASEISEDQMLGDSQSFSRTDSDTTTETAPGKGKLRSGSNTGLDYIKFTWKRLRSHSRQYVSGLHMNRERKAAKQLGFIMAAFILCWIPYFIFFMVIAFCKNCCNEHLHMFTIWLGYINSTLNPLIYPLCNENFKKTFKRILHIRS

[2] = Fraction unbound in mouse plasma at 10 uM; format: ADME, cell-free
[3] = Fraction unbound in human plasma at 10 uM; format: ADME, cell-free
[4] = Inhibition of rat benzodiazepine receptor
[5] = molecular target: T1, Adenosine receptor A3 (Homo sapiens) (UniProt P0DMS8); test: Displacement of [125I]N6-(4-amino-3-iodobenzyl)adenosine-5-N-methyluronamide from human A3A adenosine receptor expressed in CHO cell membranes at 10 uM after 60 mins by scintillation proximity assay relative to adenosine 5-N-ethyluronamide
T1 sequence (whole entry): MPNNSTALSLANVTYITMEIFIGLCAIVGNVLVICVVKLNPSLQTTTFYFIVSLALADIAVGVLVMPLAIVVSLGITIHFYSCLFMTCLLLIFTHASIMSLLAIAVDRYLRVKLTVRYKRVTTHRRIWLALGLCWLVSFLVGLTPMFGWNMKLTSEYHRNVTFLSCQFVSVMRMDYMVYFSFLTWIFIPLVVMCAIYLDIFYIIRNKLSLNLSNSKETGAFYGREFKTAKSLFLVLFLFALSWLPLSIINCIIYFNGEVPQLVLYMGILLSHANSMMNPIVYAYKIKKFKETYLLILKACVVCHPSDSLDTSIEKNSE

[6] = molecular target: T2, Adenosine receptor A1 (Mus musculus) (UniProt Q60612); test: Agonist activity at mouse A1A adenosine receptor at 10 uM after 60 mins by [35S]GTPgammaS binding assay relative to (2S,3S,4R,5R)-5-(6-amino-9H-purin-9-yl)-N-ethyl-3,4-dihydroxytetrahydrofuran-2-carboxamide; format: functional
T2 sequence (whole entry): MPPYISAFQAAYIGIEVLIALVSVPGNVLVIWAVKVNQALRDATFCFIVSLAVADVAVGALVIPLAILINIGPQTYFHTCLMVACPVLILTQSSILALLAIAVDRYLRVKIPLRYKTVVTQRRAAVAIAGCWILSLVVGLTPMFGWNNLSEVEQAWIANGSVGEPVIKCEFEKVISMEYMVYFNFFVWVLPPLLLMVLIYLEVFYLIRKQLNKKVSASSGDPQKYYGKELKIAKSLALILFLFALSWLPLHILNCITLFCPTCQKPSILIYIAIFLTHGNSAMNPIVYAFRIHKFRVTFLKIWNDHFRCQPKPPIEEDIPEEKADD

[7] = Fraction unbound in rat plasma at 10 uM; format: ADME, cell-free
Adenosine receptor A2a [8] = molecular target: T3, Adenosine receptor A2a (Homo sapiens, UniProt P29274); test: Displacement of [3H]2-[p-(2-carboxyethyl)phenylethylamino]-5-N-ethylcarboxamidoadenosine from human A2A adenosine receptor expressed in HEK293 cell membranes at 10 uM after 60 mins by scintillation proximity assay relative to adenosine 5-N-ethyluronamide
T3 sequence (P29274 whole entry): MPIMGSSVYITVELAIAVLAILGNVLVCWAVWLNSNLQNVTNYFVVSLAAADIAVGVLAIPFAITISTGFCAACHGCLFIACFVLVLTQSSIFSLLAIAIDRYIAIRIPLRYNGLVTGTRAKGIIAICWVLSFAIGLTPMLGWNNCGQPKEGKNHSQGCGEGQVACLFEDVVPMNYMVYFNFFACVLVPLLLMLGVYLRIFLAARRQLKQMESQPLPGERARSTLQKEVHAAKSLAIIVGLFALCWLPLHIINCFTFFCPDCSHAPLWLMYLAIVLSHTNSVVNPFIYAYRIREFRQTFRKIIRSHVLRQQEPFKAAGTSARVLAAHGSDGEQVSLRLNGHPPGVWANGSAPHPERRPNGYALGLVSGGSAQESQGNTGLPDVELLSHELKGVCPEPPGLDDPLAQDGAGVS

Mus musculus [9] = test: Induction of hypothermia in C57BL/6J mouse assessed as body temperature at […], icv measured up to 120 mins post dose; format: functional, organism-based
Mus musculus [10] = organism: Mus musculus; test: Selectivity index, ratio of Ki for mouse A3A adenosine receptor to Ki for mouse A1A adenosine receptor expressed in CHO cell membranes after 60 mins by scintillation proximity assay
Mus musculus [11] = test: Induction of hypothermia in C57BL/6J mouse assessed as body temperature at […], icv measured after 10 hrs post dose; format: functional, organism-based
Mus musculus [12] = test: Induction of hypothermia in C57BL/6J mouse assessed as activity counts at 3 mg/kg, ip measured at 60 mins post dose (reference value: 15.5 +/- 5.5); format: functional
Mus musculus [13] = test: Induction of hypothermia in C57BL/6J mouse assessed as body temperature at 3 mg/kg, ip measured at 60 mins post dose (reference value: 36.3 +/- 0.8 degC); format: functional
[14] = molecular target: T4, Adenosine receptor A3 (Mus musculus) (UniProt Q61618); test: Agonist activity at mouse A3AR adenosine receptor at 10 uM after 60 mins by [35S]GTPgammaS binding assay relative to (2S,3S,4R,5R)-5-(6-amino-9H-purin-9-yl)-N-ethyl-3,4-dihydroxytetrahydrofuran-2-carboxamide; format: functional
T4 sequence (whole entry): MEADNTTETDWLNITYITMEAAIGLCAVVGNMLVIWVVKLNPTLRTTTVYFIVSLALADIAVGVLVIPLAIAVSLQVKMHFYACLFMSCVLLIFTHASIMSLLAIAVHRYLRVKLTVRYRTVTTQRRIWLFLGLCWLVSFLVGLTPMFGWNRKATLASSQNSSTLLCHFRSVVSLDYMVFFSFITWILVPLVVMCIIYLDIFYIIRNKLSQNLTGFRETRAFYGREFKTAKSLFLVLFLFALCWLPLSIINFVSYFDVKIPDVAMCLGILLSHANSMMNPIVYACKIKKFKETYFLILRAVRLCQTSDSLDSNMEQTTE

[15] = molecular target: T5, Adenosine receptor A1 (Homo sapiens) (UniProt P30542); test: Displacement of [3H]N6-R-phenylisopropyladenosine from human A1A adenosine receptor expressed in CHO cell membranes at 10 uM after 60 mins by scintillation proximity assay relative to adenosine 5-N-ethyluronamide
T5 sequence (whole entry): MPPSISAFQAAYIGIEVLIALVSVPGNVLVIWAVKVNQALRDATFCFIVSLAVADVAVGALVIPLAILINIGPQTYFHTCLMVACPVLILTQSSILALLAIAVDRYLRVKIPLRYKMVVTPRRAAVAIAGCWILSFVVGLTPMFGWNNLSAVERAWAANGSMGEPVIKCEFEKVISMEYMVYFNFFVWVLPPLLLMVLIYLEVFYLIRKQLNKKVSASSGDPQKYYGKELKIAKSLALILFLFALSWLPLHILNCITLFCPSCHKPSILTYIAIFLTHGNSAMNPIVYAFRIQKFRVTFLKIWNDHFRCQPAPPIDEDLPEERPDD

Histamine H2 receptor = Histamine H2 receptor (Homo sapiens, UniProt P25021); test: Inhibition of histamine H2 receptor (unknown origin)
Chain of Histamine H2 receptor (P25021 whole entry): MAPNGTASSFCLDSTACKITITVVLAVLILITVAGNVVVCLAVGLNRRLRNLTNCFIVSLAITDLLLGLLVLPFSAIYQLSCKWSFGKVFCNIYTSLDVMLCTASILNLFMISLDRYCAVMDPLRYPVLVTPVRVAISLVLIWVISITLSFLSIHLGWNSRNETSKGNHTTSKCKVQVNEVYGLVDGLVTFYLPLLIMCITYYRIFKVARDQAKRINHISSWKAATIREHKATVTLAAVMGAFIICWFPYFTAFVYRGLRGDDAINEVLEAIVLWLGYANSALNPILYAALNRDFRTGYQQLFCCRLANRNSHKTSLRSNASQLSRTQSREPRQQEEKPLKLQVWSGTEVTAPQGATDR

[16] = molecular target: 5-hydroxytryptamine receptor 5A (Homo sapiens, UniProt P47898); test: Inhibition of 5HT5A (unknown origin)
Chain of 5-hydroxytryptamine receptor 5A (P47898 whole entry): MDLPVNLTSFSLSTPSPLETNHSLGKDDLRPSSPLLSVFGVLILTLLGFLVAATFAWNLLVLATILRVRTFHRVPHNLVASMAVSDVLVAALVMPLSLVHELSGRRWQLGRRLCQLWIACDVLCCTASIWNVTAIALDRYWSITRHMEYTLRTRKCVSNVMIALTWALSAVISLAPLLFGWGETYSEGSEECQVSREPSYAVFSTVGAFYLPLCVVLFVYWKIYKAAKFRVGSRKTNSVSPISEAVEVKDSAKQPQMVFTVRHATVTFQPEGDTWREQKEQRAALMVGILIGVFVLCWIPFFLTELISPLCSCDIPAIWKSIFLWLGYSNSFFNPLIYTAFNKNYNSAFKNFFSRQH

[17] = molecular target: Sodium-dependent noradrenaline transporter (Homo sapiens, UniProt P23975); test: Inhibition of NET (unknown origin)
Chain of Sodium-dependent noradrenaline transporter (P23975 whole entry): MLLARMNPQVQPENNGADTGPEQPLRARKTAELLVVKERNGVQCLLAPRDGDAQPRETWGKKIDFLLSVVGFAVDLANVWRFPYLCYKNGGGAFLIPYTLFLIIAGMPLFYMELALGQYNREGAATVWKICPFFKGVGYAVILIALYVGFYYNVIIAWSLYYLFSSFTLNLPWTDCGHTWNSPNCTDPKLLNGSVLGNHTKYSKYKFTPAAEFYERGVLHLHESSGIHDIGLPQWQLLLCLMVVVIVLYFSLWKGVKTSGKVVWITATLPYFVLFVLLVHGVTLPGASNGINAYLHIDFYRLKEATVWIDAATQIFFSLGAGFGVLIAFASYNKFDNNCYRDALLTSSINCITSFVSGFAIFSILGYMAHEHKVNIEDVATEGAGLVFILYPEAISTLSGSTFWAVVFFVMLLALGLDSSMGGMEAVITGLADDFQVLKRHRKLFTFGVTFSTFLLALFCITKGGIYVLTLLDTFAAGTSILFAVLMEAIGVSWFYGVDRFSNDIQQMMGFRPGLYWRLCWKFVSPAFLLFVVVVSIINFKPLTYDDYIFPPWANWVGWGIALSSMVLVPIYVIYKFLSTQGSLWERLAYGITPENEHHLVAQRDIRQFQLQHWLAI

Adenosine receptor A2a [18] = molecular target: T3, Adenosine receptor A2a; test: Displacement of [3H]2-[p-(2-carboxyethyl)phenylethylamino]-5-N-ethylcarboxamidoadenosine from human A2A adenosine receptor expressed in HEK293 cell membranes after 60 mins by scintillation proximity assay
Adenosine receptor A1 [19] = molecular target: T6, Adenosine receptor A1 (Mus musculus, UniProt Q60612); test: Displacement of [3H]N6-R-phenylisopropyladenosine from mouse A1A adenosine receptor expressed in CHO cell membranes after 60 mins by scintillation proximity assay
T6 sequence (Q60612 whole entry): T2 sequence (whole entry)

[20] = molecular target: 5-hydroxytryptamine receptor 2B (Homo sapiens, UniProt P41595); test: Inhibition of 5HT2B (unknown origin)
Chain of 5-hydroxytryptamine receptor 2B (P41595 whole entry): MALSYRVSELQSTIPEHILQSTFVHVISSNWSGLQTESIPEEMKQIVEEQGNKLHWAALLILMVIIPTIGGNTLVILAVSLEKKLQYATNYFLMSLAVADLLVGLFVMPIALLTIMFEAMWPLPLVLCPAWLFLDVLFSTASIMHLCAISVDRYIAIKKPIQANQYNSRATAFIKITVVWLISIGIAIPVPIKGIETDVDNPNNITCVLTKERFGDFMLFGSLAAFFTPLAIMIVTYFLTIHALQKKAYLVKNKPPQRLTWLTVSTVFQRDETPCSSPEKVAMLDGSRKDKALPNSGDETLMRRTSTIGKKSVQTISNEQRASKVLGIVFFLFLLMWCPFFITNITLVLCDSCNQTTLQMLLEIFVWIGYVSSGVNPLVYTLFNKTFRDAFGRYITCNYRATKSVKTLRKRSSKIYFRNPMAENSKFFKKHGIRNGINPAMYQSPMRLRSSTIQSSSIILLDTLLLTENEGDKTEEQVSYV

Adenosine receptor A3 [21] = molecular target: T7, Adenosine receptor A3 (Mus musculus, UniProt Q61618); test: Displacement of [125I]N6-(4-amino-3-iodobenzyl)adenosine-5-N-methyluronamide from mouse A3A adenosine receptor expressed in CHO cell membranes after 60 mins by scintillation proximity assay
T7 sequence (Q61618 whole entry): T4 sequence (whole entry)

[22] = molecular target: Adenosine receptor A2a (Mus musculus) (UniProt Q60613); test: Displacement of [3H]2-[p-(2-carboxyethyl)phenylethylamino]-5-N-ethylcarboxamidoadenosine from mouse A2A adenosine receptor expressed in HEK293 cell membranes at 10 uM after 60 mins by scintillation proximity assay relative to adenosine 5-N-ethyluronamide
Chain of Adenosine receptor A2a (Mus musculus) (Q60613 whole entry): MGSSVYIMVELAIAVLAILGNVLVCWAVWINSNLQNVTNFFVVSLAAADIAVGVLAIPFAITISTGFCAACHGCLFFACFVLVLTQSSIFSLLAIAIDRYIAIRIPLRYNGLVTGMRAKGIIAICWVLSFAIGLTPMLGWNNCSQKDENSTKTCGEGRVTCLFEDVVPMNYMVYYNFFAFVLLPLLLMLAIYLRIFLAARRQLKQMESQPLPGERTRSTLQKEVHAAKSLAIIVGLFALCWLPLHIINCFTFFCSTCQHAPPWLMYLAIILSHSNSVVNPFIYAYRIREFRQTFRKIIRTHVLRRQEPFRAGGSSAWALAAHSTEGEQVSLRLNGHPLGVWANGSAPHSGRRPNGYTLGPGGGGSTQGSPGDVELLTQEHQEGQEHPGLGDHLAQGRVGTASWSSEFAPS

Mus musculus [23] = test: Induction of hypothermia in A3AR knock out C57BL/6J mouse assessed as effect on body temperature at 3 mg/kg, ip measured at 60 mins post dose; format: functional, organism-based
Mus musculus [24] = test: Induction of hypothermia in A1AR knock out C57BL/6J mouse assessed as effect on body temperature at 3 mg/kg, ip measured at 60 mins post dose; format: functional, organism-based
Adenosine receptor A3 [25] = molecular target: T8, Adenosine receptor A3 (Homo sapiens, UniProt P0DMS8); test: Displacement of [125I]N6-(4-amino-3-iodobenzyl)adenosine-5-N-methyluronamide from human A3A adenosine receptor expressed in CHO cell membranes after 60 mins by scintillation proximity assay
T8 sequence (P0DMS8 whole entry): T1 sequence (whole entry)

Adenosine receptor A1 [26] = molecular target: T9, Adenosine receptor A1 (Homo sapiens, UniProt P30542); test: Displacement of [3H]N6-R-phenylisopropyladenosine from human A1A adenosine receptor expressed in CHO cell membranes after 60 mins by scintillation proximity assay
T9 sequence (P30542 whole entry): T5 sequence (whole entry)

Mus musculus [27] = test: Induction of hypothermia in A1AR/A3AR knock out C57BL/6J mouse assessed as effect on body temperature at 3 mg/kg, ip measured at 60 mins post dose; format: functional, organism-based
Adenosine receptor A1 [28] = molecular target: T9, Adenosine receptor A1; test: Agonist activity at human A1A adenosine receptor expressed in CHOKI cells assessed as induction of beta-arrestin2 recruitment after 60 mins; format: cell-based
Adenosine receptor A1 [29] = molecular target: T9, Adenosine receptor A1; test: Agonist activity at human A1A adenosine receptor expressed in HEK cells assessed as inhibition of forskolin-stimulated cAMP production after 60 mins; format: functional, cell-based
[30] = molecular target: T4, Adenosine receptor A3 (Mus musculus); test: Displacement of [125I]N6-(4-amino-3-iodobenzyl)adenosine-5-N-methyluronamide from mouse A3A adenosine receptor expressed in CHO cell membranes at 10 uM after 60 mins by scintillation proximity assay relative to adenosine 5-N-ethyluronamide
Mus musculus [31] = test: Induction of hypothermia in C57BL/6J mouse assessed as activity counts at 10 mg/kg, ip measured at 60 mins post dose (reference value: 15.5 +/- 5.5); format: functional
Adenosine receptor A1 [32] = molecular target: T9, Adenosine receptor A1; test: Agonist activity at human A1A adenosine receptor expressed in HEK cell membranes incubated for 60 mins by [35S]GTPgammaS binding assay; format: functional
Mus musculus [33] = test: Induction of hypothermia in C57BL/6J mouse assessed as body temperature at 10 mg/kg, ip measured at 60 mins post dose (reference value: 36.3 +/- 0.8 degC); format: functional
Translocator protein = Translocator protein (Homo sapiens, UniProt P30536); test: Inhibition of TSPO (unknown origin) at 10 uM relative to control
Chain of Translocator protein (P30536 whole entry): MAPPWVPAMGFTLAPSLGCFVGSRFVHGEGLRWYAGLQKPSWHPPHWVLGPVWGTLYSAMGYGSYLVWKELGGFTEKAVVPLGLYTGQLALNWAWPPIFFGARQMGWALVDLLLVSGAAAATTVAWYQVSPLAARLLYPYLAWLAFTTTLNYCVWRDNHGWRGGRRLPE

Mus musculus [34] = test: Induction of hypothermia in C57BL/6J mouse assessed as body temperature at 1 mg/kg, ip measured at 60 mins post dose (reference value: 36.3 +/- 0.8 degC); format: functional
[35] = molecular target: 5-hydroxytryptamine receptor 7 (Homo sapiens, UniProt P34969); test: Inhibition of 5HT7R (unknown origin)
Chain of 5-hydroxytryptamine receptor 7 (P34969 whole entry): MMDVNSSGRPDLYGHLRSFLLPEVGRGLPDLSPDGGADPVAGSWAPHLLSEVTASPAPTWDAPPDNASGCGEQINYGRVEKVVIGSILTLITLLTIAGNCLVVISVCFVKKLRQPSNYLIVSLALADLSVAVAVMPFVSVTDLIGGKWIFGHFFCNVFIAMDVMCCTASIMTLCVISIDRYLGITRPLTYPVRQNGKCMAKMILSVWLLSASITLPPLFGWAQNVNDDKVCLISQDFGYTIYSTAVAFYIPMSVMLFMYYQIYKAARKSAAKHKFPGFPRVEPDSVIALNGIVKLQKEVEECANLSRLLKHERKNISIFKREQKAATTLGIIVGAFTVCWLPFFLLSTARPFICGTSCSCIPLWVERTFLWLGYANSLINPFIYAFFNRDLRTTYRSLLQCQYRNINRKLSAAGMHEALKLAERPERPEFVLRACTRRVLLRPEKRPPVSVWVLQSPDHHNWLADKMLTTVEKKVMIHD

[36] = molecular target: Sigma non-opioid intracellular receptor 1 (Homo sapiens, UniProt Q99720); test: Inhibition of sigma receptor 1 (unknown origin)
Chain of Sigma non-opioid intracellular receptor 1 (Q99720 whole entry): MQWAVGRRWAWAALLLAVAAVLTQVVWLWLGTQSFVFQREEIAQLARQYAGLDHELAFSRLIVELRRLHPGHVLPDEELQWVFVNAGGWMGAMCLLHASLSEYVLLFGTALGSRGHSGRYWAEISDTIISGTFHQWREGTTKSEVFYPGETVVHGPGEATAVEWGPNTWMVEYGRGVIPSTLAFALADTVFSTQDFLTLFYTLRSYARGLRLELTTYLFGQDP

Chain of Sigma intracellular receptor 2 (Q5BJF2 whole entry): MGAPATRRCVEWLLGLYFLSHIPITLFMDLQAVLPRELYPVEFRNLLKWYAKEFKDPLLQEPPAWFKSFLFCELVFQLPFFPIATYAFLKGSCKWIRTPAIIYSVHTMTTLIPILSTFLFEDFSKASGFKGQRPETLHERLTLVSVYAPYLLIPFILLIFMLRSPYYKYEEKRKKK

Compound: Nc1ncnc2c1ncn2[C@@H]1O[C@H](C(=O)NC2CC2)[C@@H](O)[C@H]1O
Ki [1]: 4350 nM
Ki (Histamine H1 receptor): 7880 nM

Fu [2]: 27.5%
Fu [3]: 14.6%
Ki [1]: 753 nM
Ki [4]: 4080 nM
inhibition [5]: 51%
Emax [6]: 97%
Fu [7]: 17.8%
inhibition (Adenosine receptor A2a [8]): 34%
Emax [14]: 92%
Compound: OC[C@@]12C[C@@H]1[C@@H](n1cnc3c(NC(C4CCC4)C4CCC4)ncnc31)[C@H](O)[C@@H]2O
Activity (Mus musculus [9]): Active
Ratio Ki (Mus musculus [10]): 1730
Activity (Mus musculus [11]): Active
Activity (Mus musculus [12]): 18.1
T (Mus musculus [13]): 36.2 °C

inhibition [15]: 49%
inhibition [5]: 41%
Ki (Histamine H2 receptor): 6380 nM
inhibition (Adenosine receptor A2a [8]): 15%
Ki [16]: 8690 nM
Compound: CCOC(=O)[C@@]12C[C@@H]1[C@@H](n1cnc3c(NC(C4CC4)C4CC4)nc(Cl)nc31)[C@@H]1OC(C)(C)O[C@@H]12

Compound: OC[C@@]12C[C@@H]1[C@@H](n1cnc3c(N[C@H]4C[C@H]5CC[C@@H]4C5)nc(Cl)nc31)[C@H](O)[C@@H]2O
Fu [2]: 7.68%
Fu [3]: 9.75%
Ki [17]: 5740 nM
Ki (Adenosine receptor A2a [18]): 4260 nM
Ki (Adenosine receptor A1 [19]): 1.05 nM
Ki [20]: 472 nM
Ki (Adenosine receptor A3 [21]): 574 nM
Emax [6]: 104%
inhibition [22]: 15%
Fu [7]: 6.59%
Activity (Mus musculus [23]): inactive
Ratio Ki (Mus musculus [10]): 547
Activity (Mus musculus [24]): inactive
Ki (Adenosine receptor A3 [25]): 288 nM
Ki (Adenosine receptor A1 [26]): 23.6 nM
Activity (Mus musculus [12]): 10
Activity (Mus musculus [27]): inactive
T (Mus musculus [13]): 33.4 °C
Emax [14]: 62%

Compound: NC(=O)c1ncn([C@H]2[C@H](O)[C@H](O)[C@]3(CO)C[C@H]23)n1
Fu [2]: > 80%
EC50 (Adenosine receptor A1 [28]): 2460 nM
Fu [3]: > 80%
Ki [1]: 2090 nM
IC50 (Adenosine receptor A1 [29]): 87 nM
inhibition [5]: 41%
inhibition [30]: 47%
Fu [7]: > 80%
inhibition (Adenosine receptor A2a [8]): 11%
Ratio Ki (Mus musculus [10]): 400
Activity (Mus musculus [31]): 19.1
EC50 (Adenosine receptor A1 [32]): 758 nM
T (Mus musculus [33]): 35.7 °C
Emax [14]: 31%

Compound: CCSC[C@H]1O[C@@H](n2cnc3c(NC(C4CCC4)C4CCC4)ncnc32)[C@H](O)[C@@H]1O
Ki [1]: 642 nM
inhibition (Translocator protein): 90%
inhibition (Adenosine receptor A2a [8]): 30%

Compound: OC[C@H]1O[C@@H](n2cnc3c(NC4CCCC4)ncnc32)[C@H](O)[C@@H]1O [N6-CYCLOPENTYLADENOSINE]
T (Mus musculus [34]): 32.4 °C

Compound: O[C@@H]1[C@H](O)[C@@H](CCl)O[C@H]1n1cnc2c(N[C@H]3C[C@H]4CC[C@@H]3C4)ncnc21
Ki [35]: 1240 nM
Ki [1]: 432 nM
Ki (Adenosine receptor A2a [18]): 2050 nM
Ki (Adenosine receptor A3 [21]): 1560 nM
Ki [36]: 484 nM
Ki (Adenosine receptor A3 [25]): 355 nM
